Source: PubChem BioAssay (NCI)
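Step 1: Grow cells in 96-well plates. Step 2: Expose to compound for 48 hours at 5 concentrations. Step 3: Interpolate endpoints linearly; if unreached, use highest concentration. At the TGI there is no net growth.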

Columns and labels:
Test in all cases: growth of human tumour cells (NCI), 48 h
786-0 renal = system: 786-0 renal
A498 renal = system: A498 renal
A549 NSCLC = system: A549 NSCLC
ACHN renal = system: ACHN renal
BT-549 breast = system: BT-549 breast
CAKI-1 renal = system: CAKI-1 renal
CCRF-CEM leukemia = system: CCRF-CEM leukemia
COLO 205 colon = system: COLO 205 colon
DU-145 prostate = system: DU-145 prostate
EKVX NSCLC = system: EKVX NSCLC
HCC-2998 colon = system: HCC-2998 colon
HCT-116 colon = system: HCT-116 colon
HCT-15 colon = system: HCT-15 colon
HL-60(TB) leukemia = system: HL-60(TB) leukemia
HOP-62 NSCLC = system: HOP-62 NSCLC
HOP-92 NSCLC = system: HOP-92 NSCLC
HS 578T breast = system: HS 578T breast
HT29 colon = system: HT29 colon
IGROV1 ovarian = system: IGROV1 ovarian
K-562 leukemia = system: K-562 leukemia
KM12 colon = system: KM12 colon
LOX IMVI melanoma = system: LOX IMVI melanoma
M14 melanoma = system: M14 melanoma
MALME-3M melanoma = system: MALME-3M melanoma
MCF7 breast = system: MCF7 breast
MDA-MB-231 breast = system: MDA-MB-231 breast
MDA-MB-435 = system: MDA-MB-435
MDA-N = system: MDA-N
NCI-H226 lung = system: NCI-H226 lung
NCI-H23 lung = system: NCI-H23 lung
NCI-H460 lung = system: NCI-H460 lung
NCI-H522 lung = system: NCI-H522 lung
NCI/ADR-RES ovarian = system: NCI/ADR-RES ovarian
OVCAR-3 ovarian = system: OVCAR-3 ovarian
OVCAR-4 ovarian = system: OVCAR-4 ovarian
OVCAR-5 ovarian = system: OVCAR-5 ovarian
OVCAR-8 ovarian = system: OVCAR-8 ovarian
PC-3 prostate = system: PC-3 prostate
RPMI-8226 leukemia = system: RPMI-8226 leukemia
RXF 393 renal = system: RXF 393 renal
SF-268 CNS = system: SF-268 CNS
SF-295 CNS = system: SF-295 CNS
SK-MEL-2 melanoma = system: SK-MEL-2 melanoma
SK-MEL-28 melanoma = system: SK-MEL-28 melanoma
SK-MEL-5 melanoma = system: SK-MEL-5 melanoma
SK-OV-3 ovarian = system: SK-OV-3 ovarian
SN12C renal = system: SN12C renal
SNB-19 CNS = system: SNB-19 CNS
SNB-75 CNS = system: SNB-75 CNS
SR leukemia = system: SR leukemia
SW-620 colon = system: SW-620 colon
T-47D breast = system: T-47D breast
TK-10 renal = system: TK-10 renal
U251 CNS = system: U251 CNS
UACC-257 melanoma = system: UACC-257 melanoma
UACC-62 melanoma = system: UACC-62 melanoma
UO-31 renal = system: UO-31 renal

Measured: TGI

O=C(O)c1[nH]c(=O)[nH]c(=O)c1CN1CCCCC1
> 100 µM: 786-0 renal | A498 renal | A549 NSCLC | ACHN renal | BT-549 breast | CAKI-1 renal | CCRF-CEM leukemia | COLO 205 colon | DU-145 prostate | EKVX NSCLC | HCC-2998 colon | HCT-116 colon | HCT-15 colon | HL-60(TB) leukemia | HOP-62 NSCLC | HOP-92 NSCLC | HS 578T breast | HT29 colon | IGROV1 ovarian | K-562 leukemia | KM12 colon | LOX IMVI melanoma | M14 melanoma | MALME-3M melanoma | MCF7 breast | MDA-MB-231 breast | MDA-MB-435 | MDA-N | NCI-H226 lung | NCI-H23 lung | NCI-H460 lung | NCI-H522 lung | NCI/ADR-RES ovarian | OVCAR-3 ovarian | OVCAR-4 ovarian | OVCAR-5 ovarian | OVCAR-8 ovarian | PC-3 prostate | RPMI-8226 leukemia | RXF 393 renal | SF-268 CNS | SF-295 CNS | SK-MEL-2 melanoma | SK-MEL-28 melanoma | SK-MEL-5 melanoma | SK-OV-3 ovarian | SN12C renal | SNB-19 CNS | SNB-75 CNS | SR leukemia | SW-620 colon | T-47D breast | TK-10 renal | U251 CNS | UACC-257 melanoma | UACC-62 melanoma | UO-31 renal
